In patent US5245035A, “Heterocyclic boron compounds as intermediates for angiotensin II antagonists” (Imperial Chemical Industries PLC, priority 1991, dated 1993):
Where a name gives a salt, the structure may show the parent alone.

Experiments:
[1] = molecular target: T1, AII-induced contractions of isolated rabbit aorta (Oryctolagus cuniculus, UniProt P34976); test: Test B: in vitro antagonism of AII-induced contractions of isolated rabbit aorta; format: cell-based; conditions: 37° C., read-out: average pA2 (converted)
T1 construct: isolated rabbit aorta, maintained in a physiological salt solution; from tissue; host or cells: isolated rabbit aorta
T1 sequence (P34976 1-359): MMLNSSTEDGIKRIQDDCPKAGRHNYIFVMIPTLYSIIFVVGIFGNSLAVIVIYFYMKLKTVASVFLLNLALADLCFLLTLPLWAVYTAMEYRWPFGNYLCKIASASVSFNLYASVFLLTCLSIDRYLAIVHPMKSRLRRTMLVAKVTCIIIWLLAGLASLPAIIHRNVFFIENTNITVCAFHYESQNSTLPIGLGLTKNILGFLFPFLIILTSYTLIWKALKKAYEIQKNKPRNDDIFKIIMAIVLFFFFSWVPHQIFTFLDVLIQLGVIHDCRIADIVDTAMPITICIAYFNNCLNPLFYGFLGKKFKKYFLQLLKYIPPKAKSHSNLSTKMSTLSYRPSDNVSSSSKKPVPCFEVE
Experimental: The antagonism of one or more of the physiological actions of AII and, in particular, the antagonism of the interaction of AII with the receptors which mediate its effects on a target tissue, may be assessed using one or more of the following, routine laboratory procedures: This in vitro test involves the measurement of the antagonistic effects of the test compound against […] contractions of isolated rabbit aorta, maintained in a physiological salt solution at 37° C. In order to ensure that the effect of the compound is specific to antagonism of AII, the effect of the test compound on noradrenaline-induced contractions may also be determined in the same preparation.

[2] = system: angiotensin II-induced pressor responses; test: Test C: in vivo antagonism of angiotensin II-induced pressor responses in terminally-anaesthetised or conscious rats; conditions: Rattus norvegicus, iv, i.v. administration
Excerpt: The antagonism of one or more of the physiological actions of AII and, in particular, the antagonism of the interaction of AII with the receptors which mediate its effects on a target tissue, may be assessed using one or more of the following, routine laboratory procedures: This in vivo test involves using terminally-anaesthetised or conscious rats in which an arterial catheter has been implanted under anaesthesia for the measurement of changes in blood pressure. The AII antagonistic effects of the test compound following oral or parenteral administration, are assessed against angiotensin II-induced pressor responses. To ensure that the effect is specific, the effect of the test compound on vasopressin-induced pressor responses may also be determined in the same preparation.

Kb [1] [nM]	SMILES	ED50 [2] [mg/kg]
1.12	Cc1cc(OCc2ccc(-c3ccccc3-c3nnn[nH]3)cc2)c2ccccc2n1.Cl [2-methyl-4-[(2'-(1H-tetrazol-5-yl)biphenyl-4-yl)methoxy]quinoline hydrochloride]	0.5
–	Cc1cc(OCc2ccc(-c3ccccc3-c3nnn[nH]3)cc2)c2c(n1)CCCC2 [2-methyl-5,6,7,8-tetrahydro-4-[(2'-(1H-tetrazol-5-yl)methoxy]quinoline hydrochloride]	0.28
